{"source": "ChEMBL document CHEMBL1909046", "about": "“DrugMatrix in vitro pharmacology data”; further: in other assays of this panel Not Active means under 50% inhibition at 10 µM", "key": {"[1]": {"biological_target": "Cytochrome P450 2C9 (Homo sapiens, UniProt P11712)", "sequence (P11712 whole entry)": "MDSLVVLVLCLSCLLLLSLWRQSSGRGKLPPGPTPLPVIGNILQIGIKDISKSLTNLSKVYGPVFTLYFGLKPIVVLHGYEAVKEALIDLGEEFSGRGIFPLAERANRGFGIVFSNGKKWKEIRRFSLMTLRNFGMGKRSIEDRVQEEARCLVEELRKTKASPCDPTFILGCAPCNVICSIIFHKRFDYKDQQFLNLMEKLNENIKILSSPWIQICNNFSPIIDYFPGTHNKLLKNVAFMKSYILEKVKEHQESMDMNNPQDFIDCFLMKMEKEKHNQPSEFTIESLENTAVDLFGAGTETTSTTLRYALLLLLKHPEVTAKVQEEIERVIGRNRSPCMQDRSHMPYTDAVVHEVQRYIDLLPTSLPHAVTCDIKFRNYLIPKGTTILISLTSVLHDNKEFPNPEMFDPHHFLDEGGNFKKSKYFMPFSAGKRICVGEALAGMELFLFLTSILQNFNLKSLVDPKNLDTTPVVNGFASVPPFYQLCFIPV"}, "[2]": {"biological_target": "T1, Cytochrome P450 1A2 (Homo sapiens, UniProt P05177)", "T1 sequence (P05177 whole entry)": "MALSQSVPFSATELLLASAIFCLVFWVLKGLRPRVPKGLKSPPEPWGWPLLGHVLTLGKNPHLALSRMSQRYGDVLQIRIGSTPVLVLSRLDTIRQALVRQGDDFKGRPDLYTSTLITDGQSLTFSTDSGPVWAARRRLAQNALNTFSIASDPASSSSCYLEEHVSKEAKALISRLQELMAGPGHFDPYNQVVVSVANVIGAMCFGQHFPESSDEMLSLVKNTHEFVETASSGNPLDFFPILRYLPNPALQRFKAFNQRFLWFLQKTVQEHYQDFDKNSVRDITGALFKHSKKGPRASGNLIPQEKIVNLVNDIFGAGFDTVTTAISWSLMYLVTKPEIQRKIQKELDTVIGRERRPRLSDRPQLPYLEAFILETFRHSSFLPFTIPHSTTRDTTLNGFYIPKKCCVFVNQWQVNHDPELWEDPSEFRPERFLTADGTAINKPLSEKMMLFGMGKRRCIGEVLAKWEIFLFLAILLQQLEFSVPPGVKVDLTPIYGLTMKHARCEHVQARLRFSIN"}, "[3]": {"biological_target": "Cytochrome P450 2C19 (Homo sapiens, UniProt P33261)", "sequence (P33261 whole entry)": "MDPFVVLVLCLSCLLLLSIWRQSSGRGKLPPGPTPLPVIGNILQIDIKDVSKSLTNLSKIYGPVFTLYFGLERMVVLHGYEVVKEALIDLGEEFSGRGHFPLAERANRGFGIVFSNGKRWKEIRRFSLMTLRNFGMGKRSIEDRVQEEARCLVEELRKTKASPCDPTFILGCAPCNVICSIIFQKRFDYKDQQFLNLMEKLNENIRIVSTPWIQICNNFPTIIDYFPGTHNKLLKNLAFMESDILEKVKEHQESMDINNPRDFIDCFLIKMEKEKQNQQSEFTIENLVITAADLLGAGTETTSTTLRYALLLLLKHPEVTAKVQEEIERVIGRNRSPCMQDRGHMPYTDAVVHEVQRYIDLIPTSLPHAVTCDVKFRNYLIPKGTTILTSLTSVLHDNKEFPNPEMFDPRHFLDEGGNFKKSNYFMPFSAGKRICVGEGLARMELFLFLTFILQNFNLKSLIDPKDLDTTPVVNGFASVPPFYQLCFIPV"}, "[4]": {"biological_target": "Cytochrome P450 2D6 (Homo sapiens, UniProt P10635)", "sequence (P10635 whole entry)": "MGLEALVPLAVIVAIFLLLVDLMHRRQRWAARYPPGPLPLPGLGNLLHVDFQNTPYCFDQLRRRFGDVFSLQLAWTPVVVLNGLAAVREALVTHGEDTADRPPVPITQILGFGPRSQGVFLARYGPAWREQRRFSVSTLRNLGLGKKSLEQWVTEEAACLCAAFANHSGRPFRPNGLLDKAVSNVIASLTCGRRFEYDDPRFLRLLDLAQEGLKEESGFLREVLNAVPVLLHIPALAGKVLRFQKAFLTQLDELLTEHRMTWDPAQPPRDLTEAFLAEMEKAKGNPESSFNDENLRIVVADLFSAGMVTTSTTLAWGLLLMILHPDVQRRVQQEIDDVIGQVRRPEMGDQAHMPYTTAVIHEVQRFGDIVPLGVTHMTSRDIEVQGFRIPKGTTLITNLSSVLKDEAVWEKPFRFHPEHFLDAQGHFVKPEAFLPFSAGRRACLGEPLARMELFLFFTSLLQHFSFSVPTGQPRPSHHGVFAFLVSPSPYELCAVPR"}, "[5]": {"biological_target": "T2, Androgen receptor (Rattus norvegicus, UniProt P15207)", "T2 sequence (P15207 whole entry)": "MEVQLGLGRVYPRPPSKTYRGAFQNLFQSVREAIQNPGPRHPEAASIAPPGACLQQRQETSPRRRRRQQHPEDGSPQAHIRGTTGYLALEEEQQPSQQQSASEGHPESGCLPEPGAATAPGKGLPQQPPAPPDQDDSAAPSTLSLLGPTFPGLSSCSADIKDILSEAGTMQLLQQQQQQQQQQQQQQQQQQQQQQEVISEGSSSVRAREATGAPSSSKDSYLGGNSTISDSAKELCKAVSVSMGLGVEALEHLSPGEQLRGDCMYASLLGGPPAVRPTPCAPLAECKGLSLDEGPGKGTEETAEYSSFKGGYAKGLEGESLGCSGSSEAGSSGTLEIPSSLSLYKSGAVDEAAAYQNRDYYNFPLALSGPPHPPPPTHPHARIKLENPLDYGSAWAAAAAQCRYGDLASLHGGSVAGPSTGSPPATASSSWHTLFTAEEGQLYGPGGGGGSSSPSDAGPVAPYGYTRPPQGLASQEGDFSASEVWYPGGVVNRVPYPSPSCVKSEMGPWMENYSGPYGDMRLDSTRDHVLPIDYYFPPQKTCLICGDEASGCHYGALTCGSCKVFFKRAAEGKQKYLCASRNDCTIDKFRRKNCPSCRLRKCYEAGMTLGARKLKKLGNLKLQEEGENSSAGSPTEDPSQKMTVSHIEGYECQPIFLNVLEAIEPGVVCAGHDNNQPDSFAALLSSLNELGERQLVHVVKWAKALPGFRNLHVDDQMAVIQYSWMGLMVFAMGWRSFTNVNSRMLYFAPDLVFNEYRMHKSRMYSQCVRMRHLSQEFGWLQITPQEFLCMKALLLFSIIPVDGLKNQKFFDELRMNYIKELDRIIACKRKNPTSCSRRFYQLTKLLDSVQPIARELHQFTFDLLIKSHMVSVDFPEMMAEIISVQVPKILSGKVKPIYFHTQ"}, "[6]": {"biological_target": "T3, Glucocorticoid receptor (Homo sapiens, UniProt P04150)", "T3 sequence (P04150 whole entry)": "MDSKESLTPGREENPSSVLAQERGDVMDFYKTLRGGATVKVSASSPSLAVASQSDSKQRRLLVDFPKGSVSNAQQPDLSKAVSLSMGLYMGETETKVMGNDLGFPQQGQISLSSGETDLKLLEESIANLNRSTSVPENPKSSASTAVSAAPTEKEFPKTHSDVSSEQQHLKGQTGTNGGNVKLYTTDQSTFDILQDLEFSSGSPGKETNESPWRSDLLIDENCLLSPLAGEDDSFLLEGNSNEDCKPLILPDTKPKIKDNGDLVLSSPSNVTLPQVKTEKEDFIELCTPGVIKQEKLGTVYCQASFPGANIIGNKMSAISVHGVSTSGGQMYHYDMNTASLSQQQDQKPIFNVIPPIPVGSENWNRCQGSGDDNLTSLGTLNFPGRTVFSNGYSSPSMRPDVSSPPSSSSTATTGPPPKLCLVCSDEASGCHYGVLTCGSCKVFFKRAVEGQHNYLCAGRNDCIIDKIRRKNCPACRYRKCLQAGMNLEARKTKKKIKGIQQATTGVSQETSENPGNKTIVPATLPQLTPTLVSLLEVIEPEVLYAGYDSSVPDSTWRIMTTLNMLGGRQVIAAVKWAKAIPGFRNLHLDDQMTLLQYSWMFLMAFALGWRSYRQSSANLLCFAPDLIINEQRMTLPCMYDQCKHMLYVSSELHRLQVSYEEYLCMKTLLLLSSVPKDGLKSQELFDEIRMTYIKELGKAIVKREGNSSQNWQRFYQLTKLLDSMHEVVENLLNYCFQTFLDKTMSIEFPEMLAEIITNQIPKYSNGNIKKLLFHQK", "assay": "biochemical"}, "[7]": {"biological_target": "Cytochrome P450 3A4 (Homo sapiens, UniProt P08684)", "sequence (P08684 whole entry)": "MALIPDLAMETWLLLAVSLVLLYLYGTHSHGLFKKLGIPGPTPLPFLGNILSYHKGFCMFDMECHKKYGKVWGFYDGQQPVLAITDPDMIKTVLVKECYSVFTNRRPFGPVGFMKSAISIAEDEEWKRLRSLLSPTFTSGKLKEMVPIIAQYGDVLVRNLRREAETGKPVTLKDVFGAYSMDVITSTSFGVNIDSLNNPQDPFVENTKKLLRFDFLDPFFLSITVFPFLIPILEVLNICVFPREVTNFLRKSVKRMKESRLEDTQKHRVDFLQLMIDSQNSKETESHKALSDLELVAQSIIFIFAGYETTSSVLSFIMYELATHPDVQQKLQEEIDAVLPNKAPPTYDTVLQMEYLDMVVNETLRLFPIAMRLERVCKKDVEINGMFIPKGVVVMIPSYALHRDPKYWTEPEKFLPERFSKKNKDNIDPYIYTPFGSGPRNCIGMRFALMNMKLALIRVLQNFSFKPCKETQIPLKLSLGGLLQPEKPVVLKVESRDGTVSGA"}}, "data": [{"compound": "NNc1ccccc1", "note": "[PHENYLHYDRAZINE]", "values": [{"measurement": "IC50", "setting": "[1]", "result": 6000, "unit": "nM"}, {"measurement": "IC50", "setting": "[2]", "result": 8000, "unit": "nM"}, {"measurement": "IC50", "setting": "[3]", "result": 5000, "unit": "nM"}, {"measurement": "IC50", "setting": "[4]", "result": 3000, "unit": "nM"}]}, {"compound": "CN1CCN2c3ccccc3Cc3ccccc3C2C1", "note": "(stereo not given) [MIANSERIN]", "values": [{"measurement": "IC50", "setting": "[5]", "result": "Not Active"}]}, {"compound": "CC(CCc1ccccc1)NCC(O)c1ccc(O)c(C(N)=O)c1", "note": "(stereo not given) [LABETALOL]", "values": [{"measurement": "IC50", "setting": "[4]", "result": 800, "unit": "nM"}]}, {"compound": "CSc1ccc2c(c1)N(CCC1CCCCN1C)c1ccccc1S2", "note": "(stereo not given) [THIORIDAZINE]", "values": [{"measurement": "IC50", "setting": "[2]", "result": 9330, "unit": "nM"}, {"measurement": "IC50", "setting": "[3]", "result": 6380, "unit": "nM"}]}, {"compound": "COc1c(C)c2c(c(O)c1C/C=C(\\C)CCC(=O)OCCN1CCOCC1)C(=O)OC2", "note": "[MYCOPHENOLATE MOFETIL]", "values": [{"measurement": "IC50", "setting": "[5]", "result": "Not Active"}]}, {"compound": "O=C1c2c(O)ccc(O)c2C(=O)c2c(NCCNCCO)ccc(NCCNCCO)c21", "note": "[MITOXANTRONE]", "values": [{"measurement": "IC50", "setting": "[5]", "result": "Not Active"}]}, {"compound": "CN(C)[C@@H]1C(O)=C(C(N)=O)C(=O)[C@@]2(O)C(O)=C3C(=O)c4c(O)cccc4[C@@](C)(O)[C@H]3C[C@@H]12", "note": "[TETRACYCLINE]", "values": [{"measurement": "IC50", "setting": "[5]", "result": "Not Active"}]}, {"compound": "IVERMECTIN", "values": [{"measurement": "IC50", "setting": "[5]", "result": "Not Active"}, {"measurement": "Ki", "setting": "[5]", "result": "Not Active"}]}, {"compound": "c1ccc2[nH]c(-c3cscn3)nc2c1", "note": "[THIABENDAZOLE]", "values": [{"measurement": "IC50", "setting": "[2]", "result": 800, "unit": "nM"}, {"measurement": "IC50", "setting": "[5]", "result": "Not Active"}]}, {"compound": "CC(C)(O)c1ccccc1CC[C@@H](SCC1(CC(=O)O)CC1)c1cccc(/C=C/c2ccc3ccc(Cl)cc3n2)c1", "note": "[MONTELUKAST]", "values": [{"measurement": "IC50", "setting": "[5]", "result": "Not Active"}]}, {"compound": "C[C@]12Cc3c[nH]nc3C[C@@H]1CC[C@@H]1[C@@H]2CC[C@@]2(C)[C@H]1CC[C@]2(C)O", "note": "[STANOZOLOL]", "values": [{"measurement": "IC50", "setting": "[1]", "result": 1130, "unit": "nM"}, {"measurement": "IC50", "setting": "[3]", "result": 48, "unit": "nM"}, {"measurement": "IC50", "setting": "[4]", "result": 9270, "unit": "nM"}]}, {"compound": "CN(N=O)C(=O)N[C@@H](C=O)[C@@H](O)[C@H](O)[C@H](O)CO", "note": "[STREPTOZOCIN]", "values": [{"measurement": "IC50", "setting": "[5]", "result": "Not Active"}]}, {"compound": "Clc1ccccc1C(c1ccccc1)(c1ccccc1)n1ccnc1", "note": "[CLOTRIMAZOLE]", "values": [{"measurement": "IC50", "setting": "[1]", "result": 16, "unit": "nM"}, {"measurement": "IC50", "setting": "[3]", "result": 16, "unit": "nM"}, {"measurement": "IC50", "setting": "[6]", "result": 3260, "unit": "nM"}, {"measurement": "Ki", "setting": "[6]", "result": 1480, "unit": "nM"}]}, {"compound": "CC(=O)S[C@@H]1CC2=CC(=O)CC[C@]2(C)[C@H]2CC[C@@]3(C)[C@@H](CC[C@@]34CCC(=O)O4)[C@H]12", "note": "[SPIRONOLACTONE]", "values": [{"measurement": "IC50", "setting": "[3]", "result": 3000, "unit": "nM"}, {"measurement": "IC50", "setting": "[6]", "result": 1900, "unit": "nM"}, {"measurement": "Ki", "setting": "[6]", "result": 865, "unit": "nM"}]}, {"compound": "COc1cccc(C2(O)CCCCC2CN(C)C)c1", "note": "(stereo not given) [TRAMADOL]", "values": [{"measurement": "IC50", "setting": "[5]", "result": "Not Active"}]}, {"compound": "C=CC[C@@H]1/C=C(\\C)C[C@H](C)C[C@H](OC)[C@H]2O[C@@](O)(C(=O)C(=O)N3CCCC[C@H]3C(=O)O[C@H](/C(C)=C/[C@@H]3CC[C@@H](O)[C@H](OC)C3)[C@H](C)[C@@H](O)CC1=O)[C@H](C)C[C@@H]2OC", "note": "[TACROLIMUS ANHYDROUS]", "values": [{"measurement": "IC50", "setting": "[7]", "result": 1000, "unit": "nM"}, {"measurement": "IC50", "setting": "[5]", "result": "Not Active"}]}]}
